Test results taken from BindingDB's records for doi:10.1021/cb400526n (Academy of Sciences of The Czech Republic, 2013).
pIC50: −log10 of the molar value.

What follows are molecules tested against Aldo-keto reductase family 1 member B1 (Homo sapiens, UniProt P15121) (assay: IC50 Activity Assays). Details: pH 7; 25 °C.
Experimental: The final reaction volume was 500uL per reaction. All compounds were dissolved in dimethyl sulphoxide, and the corresponding solution was added to the cell and incubated for 5 min at 25 degrees Celsius prior to the addition of the substrate. The reaction was initiated by the addition of 1mM glyceraldehyde, and the decrease in optical density at 340nm was monitored for 3 min at 25 degrees Celsius in a UV-vis spectrophotometer.

Going from `O=C(O)COc1cc(Cl)ccc1C(=O)NCc1ccc(Br)cc1F` [IDD388] to `O=C(O)COc1cc(Cl)ccc1C(=O)NCc1ccc(I)cc1F` [MK315], the pIC50 rises from 6.40 to 6.72 (0.32 log units). The second is the more potent here.

Going from `O=C(O)COc1cc(Cl)ccc1C(=O)NCc1ccc(Br)cc1` [MK181] to `O=C(O)COc1cc(Cl)ccc1C(=O)NCc1ccc(I)cc1` [MK257], the pIC50 falls from 6.15 to 5.72 (0.43 log units). The first is the more potent here.

Going from `O=C(O)COc1cc(Cl)ccc1C(=O)NCc1c(F)c(F)c(Br)c(F)c1F` [MK319] to `O=C(O)COc1cc(Cl)ccc1C(=O)NCc1c(F)cc(Br)cc1F` [MK408], the pIC50 falls from 6.52 to 5.92 (0.60 log units).

In the case of `O=C(O)COc1cc(Cl)ccc1C(=O)NCc1c(F)cc(I)cc1F` [MK409], the pIC50 was 5.87.
